Where “and” joins values, the source holds several entries; their conditions need not be identical. Identical values can stand only once.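 Growth conditions: 96-well plates. Treatment: test compound, 48 hours, 5 concentrations. Analysis: linear interpolation between bracketing concentrations; unreached endpoints set to highest concentration. Abbreviation: GI50, concentration required for 50% inhibition of growth. TGI: total growth inhibition.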
Test system: MDA-MB-468 breast
Assay: NCI tumour cell line growth inhibition, 48 h

Structure (SMILES) | GI50 | TGI
CN1CCN(CCCOc2cccc3nc(Nc4ccc(Cl)c(F)c4)ccc23)CC1 | 1720 nM | 3320 nM
CC1=CC[C@@H]2C(C)(C)C(=O)CC[C@@]2(C)[C@@H]1COc1ccc2ccc(=O)oc2c1 | 4830 nM | 35900 nM
O=C(Nc1ccc(F)cc1)c1cc(-c2ccc(F)cc2F)ccc1O | 2210 nM | 7480 nM
CN1CCN(c2ccc(-c3ccc4ncc(C#N)c(Nc5ccc(F)c(Cl)c5)c4c3)cc2)CC1 | 431 nM | 2100 nM
COc1ccc2c(c1)[C@]1(C[C@H]1c1ccc3c(/C=C/c4ccc(CN5C[C@@H](C)O[C@@H](C)C5)cc4)n[nH]c3c1)C(=O)N2 | 2990 nM | > 92400 nM
Cc1cc(N2CCN(C)CC2)nc(NCc2cc(Nc3ccnc4cc(Cl)ccc34)ccc2F)n1 | 1670 nM | 3590 nM
Cc1cc(Cc2cc(C)c(O)c(C)c2)cc(C)c1O | 2550 nM | 9750 nM
COc1cc(/C=C/C(=O)c2cc(OC)c(OC)c(OC)c2)ccc1Oc1nc(NCCO)nc(N2CCOCC2)n1 | 1710 nM | 4300 nM
COc1cc(/C=N/Nc2ncnc3c2cnn3C(C)C)ccc1O | 9320 nM | 24600 nM
N#CC(C#N)=Cc1c(-c2ccccc2)[nH]c2ccccc12 | 955 nM | 5210 nM
O=C(CCCn1c(=O)c2sc3ccccc3c2n2nnc(-c3ccccc3)c12)NCCc1cnc[nH]1 | 1690 nM | 3680 nM
Oc1c(C(Nc2cccc3ccccc23)c2ccccc2)ccc2cccnc12 (stereo unspecified) | 1790 nM | 4310 nM
COc1ccc(C[n+]2c3ccccc3n3c4ccc(N)cc4ccc32)c(OC)c1OC | 275 nM | 1420 nM
Cn1cc(C2=C(c3c4n(c5ccccc35)CCCC4)C(=O)NC2=O)c2ccccc21 | 5310 nM | > 25000 nM
COc1cc(-c2nn(-c3ccc(NC(=O)Nc4ccc(Cl)c(Cl)c4)cc3)cc2-c2ccncc2)ccc1Cl | 2150 nM | 5720 nM
O=[N+]([O-])c1cc([N+](=O)[O-])c(Cl)c(Cl)c1Cl | 250 nM | 723 nM
Cc1cc2nc(C(Cl)Cl)nc(-c3cccs3)n2n1 | 314 nM | 1540 nM
COc1ccc(-c2nn(-c3ccc(NC(=O)c4ccc(Cl)c(C(F)(F)F)c4)cc3)cc2-c2ccncc2)cc1Cl | 1600 nM | > 100000 nM
O=C(/C=C1\C(=O)N(Cc2ccc([N+](=O)[O-])cc2)c2ccccc21)c1ccc(OCCN2CCCCC2)cc1 | 1110 nM | 2490 nM
COc1cc2ccccc2c2cc([N+](=O)[O-])oc12 | 1030 nM | 2360 nM
CN(CCC#N)c1ccc(/C=C(\C#N)c2cccc(C(F)(F)F)c2)cc1 | 797 nM | > 100000 nM
Cc1oc2nc[nH]c(=O)c2c1C(=O)/C=C/c1ccc(Cl)cc1 | 1380 nM | 3870 nM

Structure (SMILES) | GI50 | TGI
COc1ccc(Cl)cc1Nc1nc(C(F)(F)F)ccc1C(=O)N/N=C/c1ccc([N+](=O)[O-])cc1 | 1130 nM | 3680 nM
CCN(CC)C(=O)CC1=C(C)/C(=C/c2[nH]c(-c3ccc[nH]3)cc2OC)N=C1C | 572 nM | 17900 nM
COc1cccc(C(=O)Nc2ccc(CN3CCc4nc5cc(OC)c(OC)cc5cc43)cc2)c1 | 4010 nM | 31900 nM
Cc1c(C)c2c(c(C)c1NC(=O)/C=C\C(=O)O)CCC(C)(CCCC(C)CCCC(C)CCCC(C)C)O2 (stereo unspecified) | 1990 nM | 3980 nM
O=C(/C=C/c1ccccc1)c1c[nH]c2ccccc2c1=O | 1800 nM | 4410 nM
Cc1cc2cccnc2c2ncccc12 | 2030 nM | 5480 nM
C=CCn1c(=O)c2cnc(Nc3ccc(N4CCN(C)CC4)cc3)nc2n1-c1ccc2c(n1)[C@@](O)(CC)CC2 | 189 nM | 698 nM
COc1cc2c(c(OC)c1OC)C(=O)CC(c1cccc(NC(=O)c3ccc(Br)cc3)c1)O2 (stereo unspecified) | 1850 nM | 8010 nM
Cc1ccc(NC(=O)c2ccc(CN3CCN(C)CC3)c(C(F)(F)F)c2)cc1Oc1ccc(-c2[nH]nc3ncnc(N)c23)cc1 | 12200 nM | 43900 nM
O=C(/C=C/C12c3ccccc3C(c3ccccc31)C1C(=O)N(c3ccccc3)C(=O)C12)c1ccc(Cl)cc1 (stereo unspecified) | 1880 nM | 5870 nM
CN(Cc1cnc(N)nc1N)c1ccc(C(=O)O)cc1 | > 100000 nM | > 100000 nM
COc1cc(NS(C)(=O)=O)ccc1Nc1c2ccccc2nc2c(C)cccc12 | 236 nM and 298 nM | 779 nM and 1670 nM
CCCCN(CCCC)c1ccc(C(=N)c2ccc(N(C)C)cc2)cc1 | 249 nM | 966 nM
NC(=O)c1cc(-c2ccncc2)cc(-c2ccccc2)c1N | 6440 nM | > 25000 nM
C=C1C(=O)O[C@H]2[C@H]1CC/C(Cn1cc(CNCCc3c[nH]c4ccc(Cl)cc34)nn1)=C\CC[C@@]1(C)O[C@@H]21 | 2190 nM | 9190 nM
Oc1ccc(CSc2nnc(-c3ccncc3)n2-c2ccccc2)c2cccnc12 | 1350 nM | 16100 nM
NC(C/[N+]([O-])=N/O)C(=O)O (stereo unspecified) | 7310 nM | > 500000 nM
COc1cc(-c2n/c(=C\c3c(O)[nH]c4ccc(Cl)cc34)cc3c2=Nc2ccccc2-3)cc(OC)c1OC | 1730 nM | 4260 nM
Cc1onc(-c2c(F)cccc2Cl)c1-c1ncc(-c2ccc(Cl)cc2)o1 | 3490 nM | > 100000 nM
COc1cc(N2CCN(C(C)C)CC2)ccc1Nc1nc(Nc2cccc3ncccc23)c2cc[nH]c2n1 | 3590 nM | 8840 nM
IP(CCCCCCCCCCSc1n(Cc2ccc3ccccc3c2)c(-c2ccccc2)c(-c2ccccc2)[n+]1Cc1ccc2ccccc2c1)(c1ccccc1)(c1ccccc1)c1ccccc1 | 267 nM | 918 nM
